Results reported in patent US8871753B2, “Macrocyclic compounds and their use as kinase inhibitors” (Incyte Corporation, priority 2008, dated 2014).
Counter-ions that a name gives are not always drawn.

Key:
Format in all cases: biochemical
[1] = target: T1, human JAK1 (a.a. 837-1142) (Homo sapiens, UniProt P23458); test: In vitro JAK kinase assay (HTRF, phosphorylation of a biotinylated peptide), JAK1; settings: method AA1 (90 μM ATP) or AA2 (1000 μM ATP), not stated per value; read-out: JAK1 IC50
T1 construct: human JAK1 (a.a. 837-1142); His tag (N); made in house; host or cells: insect cells (baculovirus)
T1 sequence (P23458 849-1154): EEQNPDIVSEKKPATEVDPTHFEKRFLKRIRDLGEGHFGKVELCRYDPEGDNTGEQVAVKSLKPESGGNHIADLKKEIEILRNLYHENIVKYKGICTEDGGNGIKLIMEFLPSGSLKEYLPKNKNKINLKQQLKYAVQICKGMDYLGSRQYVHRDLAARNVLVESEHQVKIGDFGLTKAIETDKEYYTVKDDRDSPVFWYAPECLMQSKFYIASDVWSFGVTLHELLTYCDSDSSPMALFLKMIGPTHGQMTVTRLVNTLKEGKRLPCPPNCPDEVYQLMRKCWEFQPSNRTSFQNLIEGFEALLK
Method in brief: (§1)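 Kinase reactions ran at room temperature for 1 h with ATP matched per isoform (JAK1 90 μM, JAK2 30 μM, JAK3 3 μM). After an EDTA stop, the phosphorylated biotin-peptide was read by HTRF using Eu-Py20 and SA-APC after 40 min binding.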

[2] = target: T2, human JAK2 (a.a. 828-1132) (Homo sapiens, UniProt O60674); test: In vitro JAK kinase assay (HTRF, phosphorylation of a biotinylated peptide), JAK2; settings: method AA1 (30 μM ATP) or AA2 (1000 μM ATP), not stated per value
T2 construct: JAK2 (a.a. 828-1132); His tag (N); made in house; host or cells: insect cells (baculovirus)
T2 sequence (O60674 828-1132): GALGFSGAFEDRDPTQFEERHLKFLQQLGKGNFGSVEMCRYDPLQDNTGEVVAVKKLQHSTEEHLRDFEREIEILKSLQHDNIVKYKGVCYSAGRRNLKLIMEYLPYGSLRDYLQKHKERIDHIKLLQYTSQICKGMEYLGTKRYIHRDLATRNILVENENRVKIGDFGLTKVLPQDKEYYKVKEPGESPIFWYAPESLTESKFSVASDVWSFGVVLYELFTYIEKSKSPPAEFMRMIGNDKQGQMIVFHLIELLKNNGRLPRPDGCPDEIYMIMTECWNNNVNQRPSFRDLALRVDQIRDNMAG
Method in brief: as §1

[3] = target: T3, human JAK3 (a.a. 781-1124) (Homo sapiens, UniProt P52333); test: In vitro JAK kinase assay (HTRF, phosphorylation of a biotinylated peptide), JAK3; settings: method AA1 (3 μM ATP) or AA2 (1000 μM ATP), not stated per value
T3 construct: JAK3 (a.a. 781-1124); His tag (N); made in house; host or cells: insect cells (baculovirus)
T3 sequence (P52333 781-1124): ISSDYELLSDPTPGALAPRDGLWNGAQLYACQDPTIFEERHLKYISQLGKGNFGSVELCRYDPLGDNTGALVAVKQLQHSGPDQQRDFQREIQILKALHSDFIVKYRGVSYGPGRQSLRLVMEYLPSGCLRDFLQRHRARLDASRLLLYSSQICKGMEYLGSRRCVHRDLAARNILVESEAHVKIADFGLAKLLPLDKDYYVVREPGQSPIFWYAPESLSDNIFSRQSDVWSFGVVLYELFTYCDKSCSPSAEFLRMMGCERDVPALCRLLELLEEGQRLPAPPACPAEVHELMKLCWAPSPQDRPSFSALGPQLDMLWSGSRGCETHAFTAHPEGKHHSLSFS
Method in brief: as §1

TYK2 = TYK2 (Homo sapiens, UniProt P29597); test: TYK2 kinase inhibition (Table A1)
Chain of TYK2 (P29597 whole entry): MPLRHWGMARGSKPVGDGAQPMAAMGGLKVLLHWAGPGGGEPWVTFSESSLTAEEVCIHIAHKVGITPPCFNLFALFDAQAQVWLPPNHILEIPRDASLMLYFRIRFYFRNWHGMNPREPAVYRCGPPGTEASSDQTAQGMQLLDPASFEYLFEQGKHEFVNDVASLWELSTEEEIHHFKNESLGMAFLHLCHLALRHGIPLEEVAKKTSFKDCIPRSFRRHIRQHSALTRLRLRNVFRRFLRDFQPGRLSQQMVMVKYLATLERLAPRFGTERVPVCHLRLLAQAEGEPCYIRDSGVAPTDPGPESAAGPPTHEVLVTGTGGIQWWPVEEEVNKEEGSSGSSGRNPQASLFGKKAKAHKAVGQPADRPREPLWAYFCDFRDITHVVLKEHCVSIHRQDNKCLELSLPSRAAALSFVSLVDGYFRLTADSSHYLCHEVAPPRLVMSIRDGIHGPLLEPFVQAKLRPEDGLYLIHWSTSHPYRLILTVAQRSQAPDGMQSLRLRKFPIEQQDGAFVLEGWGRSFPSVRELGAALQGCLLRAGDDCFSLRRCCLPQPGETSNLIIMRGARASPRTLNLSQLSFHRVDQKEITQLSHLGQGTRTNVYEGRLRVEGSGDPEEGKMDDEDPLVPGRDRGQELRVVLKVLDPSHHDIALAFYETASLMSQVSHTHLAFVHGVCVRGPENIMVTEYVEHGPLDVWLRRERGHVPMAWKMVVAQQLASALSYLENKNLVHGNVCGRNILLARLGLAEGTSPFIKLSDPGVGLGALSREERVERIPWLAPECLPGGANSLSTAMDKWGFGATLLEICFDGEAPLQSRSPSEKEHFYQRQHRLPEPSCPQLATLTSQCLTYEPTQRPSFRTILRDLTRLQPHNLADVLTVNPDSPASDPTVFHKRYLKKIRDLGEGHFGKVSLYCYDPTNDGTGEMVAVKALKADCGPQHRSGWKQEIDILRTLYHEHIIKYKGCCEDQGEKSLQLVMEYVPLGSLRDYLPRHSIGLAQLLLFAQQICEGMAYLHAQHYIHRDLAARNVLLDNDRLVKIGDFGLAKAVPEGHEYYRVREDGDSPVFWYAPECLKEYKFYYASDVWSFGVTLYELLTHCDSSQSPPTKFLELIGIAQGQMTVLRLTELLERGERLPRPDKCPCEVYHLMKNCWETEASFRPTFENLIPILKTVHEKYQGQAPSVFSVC

[4] = target: T4, Recombinant Human Anaplastic Lymphoma Kinase (Homo sapiens, UniProt Q9UM73); test: ALK HTRF kinase assay; settings: compound at 500 nM or 1 mM; 90 μM ATP
T4 construct: purchased Invitrogen, Carlsbad, Calif
T4 sequence (Q9UM73 19-1620): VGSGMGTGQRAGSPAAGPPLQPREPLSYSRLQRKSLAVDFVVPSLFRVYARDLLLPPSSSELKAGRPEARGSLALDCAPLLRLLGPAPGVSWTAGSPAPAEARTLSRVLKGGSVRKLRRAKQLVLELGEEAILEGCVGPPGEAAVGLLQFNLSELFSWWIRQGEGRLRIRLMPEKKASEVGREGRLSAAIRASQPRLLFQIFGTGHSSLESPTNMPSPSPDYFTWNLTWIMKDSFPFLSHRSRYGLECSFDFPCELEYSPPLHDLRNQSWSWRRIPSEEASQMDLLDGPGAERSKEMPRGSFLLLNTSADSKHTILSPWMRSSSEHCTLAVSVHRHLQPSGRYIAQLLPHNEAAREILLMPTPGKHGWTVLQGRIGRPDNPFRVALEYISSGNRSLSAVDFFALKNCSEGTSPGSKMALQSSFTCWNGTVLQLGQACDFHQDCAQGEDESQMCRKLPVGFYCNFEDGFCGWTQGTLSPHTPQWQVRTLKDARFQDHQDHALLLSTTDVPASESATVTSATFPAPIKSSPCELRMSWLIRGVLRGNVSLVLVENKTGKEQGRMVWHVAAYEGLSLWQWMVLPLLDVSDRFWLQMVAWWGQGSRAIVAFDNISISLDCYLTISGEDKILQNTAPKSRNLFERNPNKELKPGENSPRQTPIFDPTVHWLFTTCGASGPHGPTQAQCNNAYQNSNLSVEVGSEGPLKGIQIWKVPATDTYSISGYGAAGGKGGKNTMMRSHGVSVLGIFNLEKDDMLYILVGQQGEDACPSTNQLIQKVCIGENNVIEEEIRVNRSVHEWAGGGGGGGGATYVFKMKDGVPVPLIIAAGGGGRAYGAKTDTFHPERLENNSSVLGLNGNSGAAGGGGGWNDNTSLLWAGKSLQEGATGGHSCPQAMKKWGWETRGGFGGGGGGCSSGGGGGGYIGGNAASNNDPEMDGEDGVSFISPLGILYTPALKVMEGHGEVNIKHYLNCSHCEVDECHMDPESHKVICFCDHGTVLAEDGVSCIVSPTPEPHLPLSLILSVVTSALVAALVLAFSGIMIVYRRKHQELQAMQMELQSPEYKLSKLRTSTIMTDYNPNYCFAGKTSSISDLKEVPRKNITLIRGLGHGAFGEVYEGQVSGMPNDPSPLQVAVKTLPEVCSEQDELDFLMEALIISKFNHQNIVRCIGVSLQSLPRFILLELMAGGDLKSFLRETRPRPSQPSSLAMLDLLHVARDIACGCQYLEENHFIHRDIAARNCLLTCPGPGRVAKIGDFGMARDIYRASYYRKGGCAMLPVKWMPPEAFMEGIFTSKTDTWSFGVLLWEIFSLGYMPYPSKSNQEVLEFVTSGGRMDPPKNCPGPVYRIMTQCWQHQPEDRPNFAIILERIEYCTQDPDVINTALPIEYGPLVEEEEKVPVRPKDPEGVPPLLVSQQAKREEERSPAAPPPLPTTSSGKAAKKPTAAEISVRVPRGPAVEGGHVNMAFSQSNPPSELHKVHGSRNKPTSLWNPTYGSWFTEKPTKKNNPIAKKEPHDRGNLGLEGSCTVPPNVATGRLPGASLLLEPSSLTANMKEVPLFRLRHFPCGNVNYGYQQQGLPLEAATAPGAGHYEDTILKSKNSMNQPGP
Method in brief: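 Readout was HTRF between a Eu-W1024 anti-phosphotyrosine antibody and streptavidin-APC bound to biotinylated peptide phosphorylated by recombinant human ALK. IC50 values came from a four-parameter logistic fit.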

Compound	IC50 [1] [nM]	IC50 [2] [nM]	IC50 [3] [nM]	IC50 (TYK2) [nM]	ALK % of inhibition at a concentration of 500 nM or 1 mM [4] [%]
Cc1cc(C(=O)N2CCC(CC(=O)Nc3ccc4cc3CCc3cccc(c3)Nc3ncc(Cl)c(n3)N4)CC2)n[nH]1 [Example A175, N-[6-Chloro-2,4,8,22-tetraazatetracyclo[14.3.1.1(3,7).1(9,13)]docosa-1(20),3(22),4,6,9(21),10,12,16,18-nonaen-12-yl]-2-{1-[(5-methyl-1H-pyrazol-3-yl)carbonyl]piperidin-4-yl}acetamide bis(trifluoroacetate)]	1	13	> 200	1.8	28
Cc1nccc(N2CCC(CC(=O)Nc3ccc4cc3CCc3cncc(c3)Nc3ncc(Cl)c(n3)N4)CC2)n1 [Example A182, N-[6-Chloro-2,4,8,18,22-pentaazatetracyclo[14.3.1.1(3,7).1(9,13)]docosa-1(20),3(22),4,6,9(21),10,12,16,18-nonaen-12-yl]-2-[1-(2-methylpyrimidin-4-yl)piperidin-4-yl]acetamide tris(trifluoroacetate)]	48	> 200	> 200	> 200	32
O=C(CC1CCN(c2nncs2)CC1)Nc1ccc2cc1CCc1cccc(c1)Nc1ncc(Cl)c(n1)N2 [Example A183, N-[6-Chloro-2,4,8,22-tetraazatetracyclo[14.3.1.1(3,7).1(9,13)]docosa-1(20),3(22),4,6,9(21),10,12,16,18-nonaen-12-yl]-2-[1-(1,3,4-thiadiazol-2-yl)piperidin-4-yl]acetamide bis(trifluoroacetate)]	3.6	22	> 200	30	40
O=C(CC1CCN(C(=O)c2cccnc2)CC1)Nc1ccc2cc1CCc1cccc(c1)Nc1ncc(Cl)c(n1)N2 [Example A184, N-[6-Chloro-2,4,8,22-tetraazatetracyclo[14.3.1.1(3,7).1(9,13)]docosa-1(20),3(22),4,6,9(21),10,12,16,18-nonaen-12-yl]-2-[1-(pyridin-3-ylcarbonyl)piperidin-4-yl]acetamide bis(trifluoroacetate)]	43	79	> 200	> 200	29
O=C(CC1CCN(C(=O)c2ccncc2)CC1)Nc1ccc2cc1CCc1cccc(c1)Nc1ncc(Cl)c(n1)N2 [Example A185, N-[6-Chloro-2,4,8,22-tetraazatetracyclo[14.3.1.1(3,7).1(9,13)]docosa-1(20),3(22),4,6,9(21),10,12,16,18-nonaen-12-yl]-2-(1-isonicotinoylpiperidin-4-yl)acetamide bis(trifluoroacetate)]	62	> 200	> 200	> 200	33
N#Cc1ccc(C(=O)N2CCC(CC(=O)Nc3ccc4cc3CCc3cccc(c3)Nc3ncc(Cl)c(n3)N4)CC2)cc1 [Example A186, N-[6-Chloro-2,4,8,22-tetraazatetracyclo[14.3.1.1(3,7).1(9,13)]docosa-1(20),3(22),4,6,9(21),10,12,16,18-nonaen-12-yl]-2-[1-(4-cyanobenzoyl)piperidin-4-yl]acetamide trifluoroacetate]	58	185	> 200	> 200	38
N#Cc1cccc(C(=O)N2CCC(CC(=O)Nc3ccc4cc3CCc3cncc(c3)Nc3ncc(Cl)c(n3)N4)CC2)c1 [Example A191, N-[6-Chloro-2,4,8,18,22-pentaazatetracyclo[14.3.1.1(3,7).1(9,13)]docosa-1(20),3(22),4,6,9(21),10,12,16,18-nonaen-12-yl]-2-[1-(3-cyanobenzoyl)piperidin-4-yl]acetamide bis(trifluoroacetate)]	67	> 200	> 200	> 200	25

More lines, in order of falling IC50 [1], values ahead:

IC50 [1] [nM]	IC50 [2] [nM]	IC50 [3] [nM]	IC50 (TYK2) [nM]	ALK % of inhibition at a concentration of 500 nM or 1 mM [4] [%]	Compound
116	> 200	> 200	> 200	21	O=C(CC1CCN(C(=O)c2ccncc2)CC1)Nc1ccc2cc1CCc1cncc(c1)Nc1ncc(Cl)c(n1)N2 [Example A189, N-[6-Chloro-2,4,8,18,22-pentaazatetracyclo[14.3.1.1(3,7).1(9,13)]docosa-1(20),3(22),4,6,9(21),10,12,16,18-nonaen-12-yl]-2-(1-isonicotinoylpiperidin-4-yl)acetamide tris(trifluoroacetate)]
68	> 200	> 200	> 200	26	N#Cc1ccnc(N2CCC(CC(=O)Nc3ccc4cc3CCc3cncc(c3)Nc3ncc(Cl)c(n3)N4)CC2)c1 [Example A178, N-[6-Chloro-2,4,8,18,22-pentaazatetracyclo[14.3.1.1(3,7).1(9,13)]docosa-1(20),3(22),4,6,9(21),10,12,16,18-nonaen-12-yl]-2-[1-(4-cyanopyridin-2-yl)piperidin-4-yl]acetamide tris(trifluoroacetate)]
52	132	> 200	> 200	37	N#Cc1cccc(C(=O)N2CCC(CC(=O)Nc3ccc4cc3CCc3cccc(c3)Nc3ncc(Cl)c(n3)N4)CC2)c1 [Example A187, N-[6-Chloro-2,4,8,22-tetraazatetracyclo[14.3.1.1(3,7).1(9,13)]docosa-1(20),3(22),4,6,9(21),10,12,16,18-nonaen-12-yl]-2-[1-(3-cyanobenzoyl)piperidin-4-yl]acetamide trifluoroacetate]
51	> 200	> 200	> 200	25	Cc1ccnc(N2CCC(CC(=O)Nc3ccc4cc3CCc3cncc(c3)Nc3ncc(Cl)c(n3)N4)CC2)c1 [Example A176, N-[6-Chloro-2,4,8,18,22-pentaazatetracyclo[14.3.1.1(3,7).1(9,13)]docosa-1(20),3(22),4,6,9(21),10,12,16,18-nonaen-12-yl]-2-[1-(4-methylpyridin-2-yl)piperidin-4-yl]acetamide tris(trifluoroacetate)]
34	> 200	> 200	> 200	26	O=C(CC1CCN(C(=O)c2cccnc2)CC1)Nc1ccc2cc1CCc1cncc(c1)Nc1ncc(Cl)c(n1)N2 [Example A188, N-[6-Chloro-2,4,8,18,22-pentaazatetracyclo[14.3.1.1(3,7).1(9,13)]docosa-1(20),3(22),4,6,9(21),10,12,16,18-nonaen-12-yl]-2-[1-(pyridin-3-ylcarbonyl)piperidin-4-yl]acetamide tris(trifluoroacetate)]
18	83	> 200	> 200	43	N#Cc1ccc(N2CCC(CC(=O)Nc3ccc4cc3CCc3cncc(c3)Nc3ncc(Cl)c(n3)N4)CC2)nc1 [Example A179, N-[6-Chloro-2,4,8,18,22-pentaazatetracyclo[14.3.1.1(3,7).1(9,13)]docosa-1(20),3(22),4,6,9(21),10,12,16,18-nonaen-12-yl]-2-[1-(5-cyanopyridin-2-yl)piperidin-4-yl]acetamide tris(trifluoroacetate)]
14	95	> 200	> 200	34	N#Cc1cccnc1N1CCC(CC(=O)Nc2ccc3cc2CCc2cncc(c2)Nc2ncc(Cl)c(n2)N3)CC1 [Example A177, N-[6-Chloro-2,4,8,18,22-pentaazatetracyclo[14.3.1.1(3,7).1(9,13)]docosa-1(20),3(22),4,6,9(21),10,12,16,18-nonaen-12-yl]-2-[1-(3-cyanopyridin-2-yl)piperidin-4-yl]acetamide tris(trifluoroacetate)]
13	> 200	> 200	> 200	13	O=C(CC1CCN(c2cccc(Cl)n2)CC1)Nc1ccc2cc1CCc1cncc(c1)Nc1ncc(Cl)c(n1)N2 [Example A180, N-[6-Chloro-2,4,8,18,22-pentaazatetracyclo[14.3.1.1(3,7).1(9,13)]docosa-1(20),3(22),4,6,9(21),10,12,16,18-nonaen-12-yl]-2-[1-(6-chloropyridin-2-yl)piperidin-4-yl]acetamide tris(trifluoroacetate)]
6.3	81	> 200	89	42	O=C(CC1CCN(c2cccc(F)n2)CC1)Nc1ccc2cc1CCc1cncc(c1)Nc1ncc(Cl)c(n1)N2 [Example A181, N-[6-Chloro-2,4,8,18,22-pentaazatetracyclo[14.3.1.1(3,7).1(9,13)]docosa-1(20),3(22),4,6,9(21),10,12,16,18-nonaen-12-yl]-2-[1-(6-fluoropyridin-2-yl)piperidin-4-yl]acetamide tris(trifluoroacetate)]
